Assay results published in the NIST ThermoML archive (doi:10.1021/acs.jced.7b00297).
Numbers after ± are expanded uncertainties.

Legend:
[1] = 298.15 K; 101.33 kPa; Liquid; Vibrating tube method
[2] = mn = molality of the nth substance listed, in mol/kg; conditions: 84.5 kPa, Liquid; for speed of sound: Single path-length method; for mass density: Vibrating tube method

CCCCCCn1cc[n+](C)c1.[Cl-] [1-hexyl-3-methylimidazolium chloride]
mass density [1]: 1042.86 ± 4.3 kg/m3

CCCCn1cc[n+](C)c1.[Cl-] [1-butyl-3-methylimidazolium chloride] + O
speed of sound ([2]; 288.15 K, m1 = 0.0344): 1472 ± 1 m/s
speed of sound ([2]; 288.15 K, m1 = 0.0526): 1474.7 ± 1 m/s
speed of sound ([2]; 288.15 K, m1 = 0.0926): 1480.8 ± 1 m/s
speed of sound ([2]; 288.15 K, m1 = 0.1181): 1485 ± 1 m/s
speed of sound ([2]; 288.15 K, m1 = 0.1806): 1493.8 ± 1 m/s
speed of sound ([2]; 288.15 K, m1 = 0.2371): 1502.2 ± 1 m/s
speed of sound ([2]; 288.15 K, m1 = 0.479): 1535.7 ± 1.1 m/s
speed of sound ([2]; 288.15 K, m1 = 0.7374): 1568.8 ± 1.1 m/s
mass density ([2]; 288.15 K, m1 = 0.0344): 999.577 ± 4 kg/m3
mass density ([2]; 288.15 K, m1 = 0.0526): 999.828 ± 4 kg/m3
mass density ([2]; 288.15 K, m1 = 0.0926): 1000.37 ± 4 kg/m3
mass density ([2]; 288.15 K, m1 = 0.1181): 1000.72 ± 4 kg/m3
mass density ([2]; 288.15 K, m1 = 0.1806): 1001.56 ± 4 kg/m3
mass density ([2]; 288.15 K, m1 = 0.2371): 1002.33 ± 4 kg/m3
mass density ([2]; 288.15 K, m1 = 0.479): 1005.59 ± 4 kg/m3
mass density ([2]; 288.15 K, m1 = 0.7374): 1009.02 ± 4 kg/m3
speed of sound ([2]; 298.15 K, m1 = 0.0344): 1501.5 ± 1 m/s
speed of sound ([2]; 298.15 K, m1 = 0.0526): 1504 ± 1 m/s
speed of sound ([2]; 298.15 K, m1 = 0.0926): 1509.3 ± 1 m/s
speed of sound ([2]; 298.15 K, m1 = 0.1181): 1513.1 ± 1 m/s
speed of sound ([2]; 298.15 K, m1 = 0.1806): 1520.7 ± 1 m/s
speed of sound ([2]; 298.15 K, m1 = 0.2371): 1528 ± 1 m/s
speed of sound ([2]; 298.15 K, m1 = 0.479): 1557.1 ± 1.1 m/s
speed of sound ([2]; 298.15 K, m1 = 0.7374): 1586 ± 1.1 m/s
mass density ([2]; 298.15 K, m1 = 0.0344): 997.479 ± 4 kg/m3
mass density ([2]; 298.15 K, m1 = 0.0526): 997.71 ± 4 kg/m3
mass density ([2]; 298.15 K, m1 = 0.0926): 998.209 ± 4 kg/m3
mass density ([2]; 298.15 K, m1 = 0.1181): 998.524 ± 4 kg/m3
mass density ([2]; 298.15 K, m1 = 0.1806): 999.3 ± 4 kg/m3
mass density ([2]; 298.15 K, m1 = 0.2371): 999.998 ± 4 kg/m3
mass density ([2]; 298.15 K, m1 = 0.479): 1002.98 ± 4 kg/m3
mass density ([2]; 298.15 K, m1 = 0.7374): 1006.11 ± 4 kg/m3
speed of sound ([2]; 308.15 K, m1 = 0.0344): 1523.9 ± 1 m/s
speed of sound ([2]; 308.15 K, m1 = 0.0526): 1526.1 ± 1 m/s
speed of sound ([2]; 308.15 K, m1 = 0.0926): 1530.8 ± 1 m/s
speed of sound ([2]; 308.15 K, m1 = 0.1181): 1534 ± 1 m/s
speed of sound ([2]; 308.15 K, m1 = 0.1806): 1540.7 ± 1 m/s
speed of sound ([2]; 308.15 K, m1 = 0.2371): 1547.1 ± 1 m/s
speed of sound ([2]; 308.15 K, m1 = 0.479): 1572.5 ± 1.1 m/s
speed of sound ([2]; 308.15 K, m1 = 0.7374): 1597.6 ± 1.1 m/s
mass density ([2]; 308.15 K, m1 = 0.0344): 994.434 ± 4 kg/m3
mass density ([2]; 308.15 K, m1 = 0.0526): 994.648 ± 4 kg/m3
mass density ([2]; 308.15 K, m1 = 0.0926): 995.113 ± 4 kg/m3
mass density ([2]; 308.15 K, m1 = 0.1181): 995.403 ± 4 kg/m3
mass density ([2]; 308.15 K, m1 = 0.1806): 996.124 ± 4 kg/m3
mass density ([2]; 308.15 K, m1 = 0.2371): 996.773 ± 4 kg/m3
mass density ([2]; 308.15 K, m1 = 0.479): 999.537 ± 4 kg/m3
mass density ([2]; 308.15 K, m1 = 0.7374): 1002.43 ± 4 kg/m3
speed of sound ([2]; 318.15 K, m1 = 0.0344): 1540.1 ± 1 m/s
speed of sound ([2]; 318.15 K, m1 = 0.0526): 1542 ± 1 m/s
speed of sound ([2]; 318.15 K, m1 = 0.0926): 1546.1 ± 1 m/s
speed of sound ([2]; 318.15 K, m1 = 0.1181): 1548.9 ± 1 m/s
speed of sound ([2]; 318.15 K, m1 = 0.1806): 1554.8 ± 1 m/s
speed of sound ([2]; 318.15 K, m1 = 0.2371): 1560.5 ± 1 m/s
speed of sound ([2]; 318.15 K, m1 = 0.479): 1582.7 ± 1.1 m/s
speed of sound ([2]; 318.15 K, m1 = 0.7374): 1604.5 ± 1.1 m/s
mass density ([2]; 318.15 K, m1 = 0.0344): 990.589 ± 4 kg/m3
mass density ([2]; 318.15 K, m1 = 0.0526): 990.791 ± 4 kg/m3
mass density ([2]; 318.15 K, m1 = 0.0926): 991.228 ± 4 kg/m3
mass density ([2]; 318.15 K, m1 = 0.1181): 991.504 ± 4 kg/m3
mass density ([2]; 318.15 K, m1 = 0.1806): 992.177 ± 4 kg/m3
mass density ([2]; 318.15 K, m1 = 0.2371): 992.785 ± 4 kg/m3
mass density ([2]; 318.15 K, m1 = 0.479): 995.37 ± 4 kg/m3
mass density ([2]; 318.15 K, m1 = 0.7374): 998.079 ± 4 kg/m3

CCCCn1cc[n+](C)c1.O=S(=O)([O-])C(F)(F)F [1-butyl-3-methylimidazolium trifluoromethanesulfonate]
mass density [1]: 1297.84 ± 5.4 kg/m3
